In US8106048B2, “Heterocyclic NF-κB inhibitors” (4SC AG, priority 2004, dated 2012):

test system: A549-NF-κB-SEAP reporter cells; experiment: Inhibition of NF-κB-induced inflammation: […] NINA Instant Assay, TNF-α stimulated SEAP reporter; type: cell-based; settings: % inhibition classes
Source text: For the determination of anti-inflammatory activity of the compounds the […]® NINA Instant Assay from Cell Culture Service GmBH was used. This assay is based on […] recombinant A549-NF-κB-SEAP reporter cells preceded in 96-well flat bottom plates. As the transfected reportergen for SEAP (secreted embryonic alkaline phosphatase) is under transcriptional control of a NF-κB-responsive element, the expression of this reporter is activated upon stimulation with TNF-α. SEAP secretion into the culture supernatant can be detected by the chemiluminescent substrate CSPD®. Test compounds that inhibit the NF-κB activation show reduced SEAP activity and reduced luminescent readout.
Following 18 h of reactivation at 37° C., 5% CO2 and 90% relative humidity, the cells were incubated with 0.01 up to 100 μM of test compound for 4.5 h before stimulation with 2 ng/ml TNF-α. After stimulation with TNF-α for 22 h endogenous phosphatases were inactivated and CSPD® substrate was supplied for 40 min. SEAP activity then was quantified by measuring luminescence as relative light units (RLU) using a Tecan Ultra reader. Each data point was recorded in quadruplicates and EC50 values were calculated via fitting function and the Microsoft Excel Solver.

Row | Structure (SMILES) | Biological activity (inhibition in the NF-κB inflammation assay)
1 | O=C(Nc1ccccc1OC(F)(F)F)N1CCC(c2nc(C(=O)N3CCN(c4cccc(C(F)(F)F)c4)CC3)cs2)CC1 [compound 140] | + (“+” stands for 50-80% inhibition)
2 | O=C(c1cccnc1)N1CCC(c2nc(C(=O)N3CCN(c4cccc(C(F)(F)F)c4)CC3)cs2)CC1 [compound 222] | + (“+” stands for 50-80% inhibition)
3 | O=C(O)C1=C(C(=O)N2CCC(c3nc(C(=O)N4CCN(c5cccc(C(F)(F)F)c5)CC4)cs3)CC2)CCCC1 [compound 190] | + (“+” stands for 50-80% inhibition)
4 | COc1ccc(OC)c(N2CCC(c3nc(C(=O)N4CCN(c5cccc(C(F)(F)F)c5)CC4)cs3)CC2)c1 [compound 29] | ++ (“++” means 80-90%)
5 | O=C(c1csc(C2CCN(c3ccccn3)CC2)n1)N1CCN(c2cccc(C(F)(F)F)c2)CC1 [compound 123] | ++ (“++” means 80-90%)
6 | O=C(c1csc(C2CCN(C(=O)C3COc4ccccc4O3)CC2)n1)N1CCN(c2cccc(C(F)(F)F)c2)CC1 (stereo not shown) [compound 217] | +++ (“+++” stands for 90-100% inhibition)
7 | COc1cc(C(=O)N2CCC(c3nc(C(=O)N4CCN(c5cccc(C(F)(F)F)c5)CC4)cs3)CC2)cc(OC)c1OC [compound 225] | + (“+” stands for 50-80% inhibition)
8 | O=C(C=Cc1ccccc1)N1CCC(c2nc(C(=O)N3CCN(c4cccc(C(F)(F)F)c4)CC3)cs2)CC1 [compound 214] | ++ (“++” means 80-90%)
9 | O=C(c1csc(C2CCN(C(=O)c3ccccc3OC(F)(F)F)CC2)n1)N1CCN(c2nc3ccccc3n2Cc2ccc(F)cc2)CC1 [compound 48] | +++ (“+++” stands for 90-100% inhibition)
10 | COc1cc(N2CCC(c3nc(C(=O)N4CCN(c5cccc(C(F)(F)F)c5)CC4)cs3)CC2)nc(OC)n1 [compound 164] | ++ (“++” means 80-90%)
11 | O=C(c1csc(N2CCNCC2)n1)N1CCN(c2cccc(C(F)(F)F)c2)CC1 [compound 64] | + (“+” stands for 50-80% inhibition)
12 | CN(C)c1cccc(C(=O)N2CCC(c3nc(C(=O)N4CCN(c5cccc(C(F)(F)F)c5)CC4)cs3)CC2)c1 [compound 226] | ++ (“++” means 80-90%)
13 | O=C(Nc1ccc2c(c1)OCCO2)N1CCC(c2nc(C(=O)N3CCN(c4cccc(C(F)(F)F)c4)CC3)cs2)CC1 [compound 75] | ++ (“++” means 80-90%)
14 | O=C(c1csc(C2CCN(c3ccc4c(c3)OCO4)CC2)n1)N1CCN(c2cccc(C(F)(F)F)c2)CC1 [compound 156] | + (“+” stands for 50-80% inhibition)
15 | COc1ccccc1N1CCN(c2nc(C(=O)N3CCN(c4cccc(C(F)(F)F)c4)CC3)cs2)CC1 [compound 65] | ++ (“++” means 80-90%)
16 | O=C(c1csc(C2CCN(C(=O)c3ccco3)CC2)n1)N1CCN(c2cccc(C(F)(F)F)c2)CC1 [compound 230] | + (“+” stands for 50-80% inhibition)
17 | O=C(c1csc(C2CCN(S(=O)(=O)Cc3ccccc3)CC2)n1)N1CCN(c2cccc(C(F)(F)F)c2)CC1 [compound 198] | + (“+” stands for 50-80% inhibition)
18 | O=C(c1csc(C2CCN(C(=O)c3ccccc3OC(F)(F)F)CC2)n1)N(CCO)Cc1ccccc1 [compound 148] | ++ (“++” means 80-90%)

Row | Structure (SMILES) | Biological activity (inhibition in the NF-κB inflammation assay)
19 | O=C(c1csc(C2CCN(S(=O)(=O)c3c(F)c(F)c(F)c(F)c3F)CC2)n1)N1CCN(c2cccc(C(F)(F)F)c2)CC1 [compound 193] | + (“+” stands for 50-80% inhibition)
20 | COc1cc(N2CCN(C(=O)c3csc(C4CCN(C(=O)c5ccccc5OC(F)(F)F)CC4)n3)CC2)nc(OC)n1 [compound 130] | + (“+” stands for 50-80% inhibition)
21 | COc1cccc(C(=O)N2CCC(c3nc(C(=O)N4CCN(c5cccc(C(F)(F)F)c5)CC4)cs3)CC2)c1 [compound 209] | + (“+” stands for 50-80% inhibition)
22 | COc1cc2c(cc1OC)CN(C(=O)c1csc(C3CCN(C(=O)Cc4ccc(F)cc4)CC3)n1)C(C)C2 (stereo not shown) [compound 232] | + (“+” stands for 50-80% inhibition)
23 | COc1ccccc1N1CCC(c2nc(C(=O)N3CCN(c4cccc(C(F)(F)F)c4)CC3)cs2)CC1 [compound 158] | + (“+” stands for 50-80% inhibition)
24 | O=C(c1csc(C2CCN(Cc3ccccc3Br)CC2)n1)N1CCN(c2cccc(C(F)(F)F)c2)CC1 [compound 165] | + (“+” stands for 50-80% inhibition)
25 | O=C(Cc1ccc(F)cc1)N1CCC(c2nc(C(=O)N3CCc4cc(O)c(O)cc4C3)cs2)CC1 [compound 160] | + (“+” stands for 50-80% inhibition)
26 | Cc1ccc(S(=O)(=O)N2CCC(c3nc(C(=O)N4CCN(c5cccc(C(F)(F)F)c5)CC4)cs3)CC2)cc1 [compound 204] | + (“+” stands for 50-80% inhibition)
27 | COc1nc(OC)nc(N2CCN(C(=O)c3csc(C4CCN(C(=O)Cc5ccc(F)cc5)CC4)n3)CC2)n1 [compound 126] | + (“+” stands for 50-80% inhibition)
28 | O=C(c1csc(C2CCN(Cc3c(F)cccc3F)CC2)n1)N1CCN(c2cccc(C(F)(F)F)c2)CC1 [compound 168] | + (“+” stands for 50-80% inhibition)
29 | Cc1cc2nc(NC(=O)c3csc(C4CCNCC4)n3)[nH]c2cc1C [compound 144] | + (“+” stands for 50-80% inhibition)
30 | O=C(c1csc(C2CCN(S(=O)(=O)c3ccc(Cl)cc3)CC2)n1)N1CCN(c2cccc(C(F)(F)F)c2)CC1 [compound 206] | + (“+” stands for 50-80% inhibition)
31 | Cc1cc2nc(NC(=O)c3csc(C4CCN(C(=O)c5cc(-c6ccc(Cl)cc6)oc5C(F)(F)F)CC4)n3)[nH]c2cc1C [compound 132] | + (“+” stands for 50-80% inhibition)
32 | O=C(c1csc(C2CCN(S(=O)(=O)c3ccccc3)CC2)n1)N1CCN(c2cccc(C(F)(F)F)c2)CC1 [compound 208] | + (“+” stands for 50-80% inhibition)
33 | O=C(NCC1CCN(c2nc(C(=O)N3CCN(c4cccc(C(F)(F)F)c4)CC3)cs2)CC1)c1ccc(C(F)(F)F)c(F)c1 [compound 99] | + (“+” stands for 50-80% inhibition)
34 | COc1ccccc1N1CCN(C(=O)c2csc(NC(=O)c3ccccc3OC(F)(F)F)n2)CC1 [compound 44] | ++ (“++” means 80-90%)
35 | CN1CCOc2cc(C(=O)N3CCC(c4nc(C(=O)N5CCN(c6cccc(C(F)(F)F)c6)CC5)cs4)CC3)ccc21 [compound 210] | ++ (“++” means 80-90%)

same assay, conditions: inhibition classes

Row | Structure (SMILES) | Biological activity (inhibition in the NF-κB inflammation assay)
36 | COc1cc2c(cc1OC)C(C)N(C(=O)c1csc(C3CCN(C(=O)Cc4ccc(F)cc4)CC3)n1)CC2 (stereo not shown) [compound 234] | + (“+” stands for 50-80% inhibition)
37 | COc1ccc(OC)c(N2CCC(c3nc(C(=O)N4CCN(c5cccc(C(F)(F)F)c5)CC4)cs3)CC2)c1 [compound 239] | + (“+” stands for 50-80% inhibition)
